Test results taken from patent publication US7964613B2 (Asahi Kasei Pharma Corporation, priority 2007, dated 2011).

Tested on: intraocular pressure
Assay: Rabbit intraocular pressure reduction enhancing action, Test Example 7-2 (combination use with timolol maleate)
Assay type: in vivo, Japanese white rabbit
Details: Table 6; 19-1 compound 0.01 weight % aqueous solution 50 μL, Timoptol 50 μL; difference relative to control group at 1, 2, 4 hours; 12 rabbits
Method: As a test compound, the 19-1 compound was dissolved in physiological saline, and the solution was neutralized by addition of sodium hydroxide (pH 7.0 to 8.0) to prepare a 0.01 weight % aqueous solution (19-1 compound aqueous solution). As a drug for combination use, timolol maleate (trade name: Timoptol, Santen Pharmaceutical) was used as an adrenergic receptor β blocker, as the marketed formulation as it was.
A Japanese white rabbit having a body weight of about 2 kg was placed in a positioner and naturalized for one week before the experiment. An opthalmologic local anesthesant (Benoxil) was administered to both eyes, and then intraocular pressure before instillation was measured by using a tonometer (Classic 30, Solan). […] The intraocular pressure thereafter was measured for each group 1, 2 and 4 hours after the second administration of the test compound, and the difference of the measured values at each measurement time for the each group and the control group was considered an intraocular pressure reduction value of each group. The largest difference of the intraocular pressure values relative to the control group among those of the measured values of the measurement times was considered the maximum intraocular pressure reduction value (max ? IOP) of each drug group.

SMILES: N[C@H]1CCN(S(=O)(=O)c2cccc3cncc(Cl)c23)C1 [Example 19-1, (S)-3-Amino-1-(4-chloro-5-isoquinolinesulfonyl)pyrrolidine]
- Max IOP (maximum intraocular pressure reduction value): 4.1 mmHg
